Test results from ChEMBL document CHEMBL3769397, “A new GLP-1 analogue with prolonged glucose-lowering activity in vivo via backbone-based modification at the N-terminus” (Bioorg Med Chem, 2016).

Assays:
[1] = target: T1, DPP4 (dipeptidyl peptidase 4) (Homo sapiens, UniProt P27487); experiment: Drug degradation assessed as recombinant human DPP4-mediated cleavage by measuring compound remaining after 12 hrs by RP-HPLC analysis; format: ADME; conditions: read-out: Stability
[2] = target: T1, DPP4 (dipeptidyl peptidase 4); experiment: Drug degradation assessed as recombinant human DPP4-mediated cleavage by measuring compound remaining after 8 hrs by RP-HPLC analysis; format: ADME; conditions: read-out: Stability
[3] = target: T1, DPP4 (dipeptidyl peptidase 4); experiment: Drug degradation assessed as recombinant human DPP4-mediated cleavage by measuring compound remaining after 4 hrs by RP-HPLC analysis; format: ADME; conditions: read-out: Stability
[4] = Retention time of compound over 30 mins by HPLC analysis; format: physicochemical; conditions: 0.5 h
[5] = target: T1, DPP4 (dipeptidyl peptidase 4); experiment: Half life of compound assessed as recombinant human DPP4-mediated cleavage by RP-HPLC analysis; format: ADME
[6] = target: T1, DPP4 (dipeptidyl peptidase 4); experiment: Drug degradation assessed as recombinant human DPP4-mediated cleavage by measuring compound remaining after 2 hrs by RP-HPLC analysis; format: ADME; conditions: read-out: Stability
[7] = target: T1, DPP4 (dipeptidyl peptidase 4); experiment: Drug degradation assessed as recombinant human DPP4-mediated cleavage by measuring compound remaining after 1 hr by RP-HPLC analysis; format: ADME; conditions: read-out: Stability
[8] = target: T1, DPP4 (dipeptidyl peptidase 4); experiment: Drug degradation assessed as recombinant human DPP4-mediated cleavage by measuring compound remaining after 24 hrs by RP-HPLC analysis; format: ADME; conditions: read-out: Stability
[9] = target: T1, DPP4 (dipeptidyl peptidase 4); experiment: Drug degradation assessed as recombinant human DPP4-mediated cleavage by measuring compound remaining after 96 hrs by RP-HPLC analysis; format: ADME; conditions: read-out: Stability
[10] = target: T1, DPP4 (dipeptidyl peptidase 4); experiment: Drug degradation assessed as recombinant human DPP4-mediated cleavage by measuring compound remaining after 72 hrs by RP-HPLC analysis; format: ADME; conditions: read-out: Stability
[11] = target: T1, DPP4 (dipeptidyl peptidase 4); experiment: Drug degradation assessed as recombinant human DPP4-mediated cleavage by measuring compound remaining after 48 hrs by RP-HPLC analysis; format: ADME; conditions: read-out: Stability

T1 sequence (P27487 whole entry): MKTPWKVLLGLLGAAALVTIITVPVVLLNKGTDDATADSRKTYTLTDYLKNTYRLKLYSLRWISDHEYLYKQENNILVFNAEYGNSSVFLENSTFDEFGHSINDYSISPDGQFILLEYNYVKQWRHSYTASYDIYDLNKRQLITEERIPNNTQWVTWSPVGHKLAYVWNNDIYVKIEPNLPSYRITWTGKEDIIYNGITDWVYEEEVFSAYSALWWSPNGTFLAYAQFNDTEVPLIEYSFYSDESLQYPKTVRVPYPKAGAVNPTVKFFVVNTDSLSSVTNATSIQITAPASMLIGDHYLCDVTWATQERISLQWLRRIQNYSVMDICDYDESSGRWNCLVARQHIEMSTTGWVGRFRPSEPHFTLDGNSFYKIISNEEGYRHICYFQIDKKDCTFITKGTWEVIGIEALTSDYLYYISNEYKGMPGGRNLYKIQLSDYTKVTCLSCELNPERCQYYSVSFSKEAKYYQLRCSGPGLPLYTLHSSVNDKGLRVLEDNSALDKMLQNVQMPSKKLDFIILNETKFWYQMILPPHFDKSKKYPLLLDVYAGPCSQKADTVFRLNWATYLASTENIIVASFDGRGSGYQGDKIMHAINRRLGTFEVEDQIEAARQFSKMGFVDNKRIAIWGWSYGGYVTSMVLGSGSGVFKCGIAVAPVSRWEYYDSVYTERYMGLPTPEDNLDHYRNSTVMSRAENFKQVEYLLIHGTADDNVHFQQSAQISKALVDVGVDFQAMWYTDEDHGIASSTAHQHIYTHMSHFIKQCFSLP

Row | remaining at 12 h [1] [%] | remaining at 8 h [2] [%] | remaining at 4 h [3] [%] | Retention_time [4] [min] | half-life [5] [h] | remaining at 2 h [6] [%] | remaining at 1 h [7] [%] | remaining at 24 h [8] [%] | remaining at 96 h [9] [%] | remaining at 72 h [10] [%] | remaining at 48 h [11] [%] | Structure (SMILES)
1 | 6.1 | 17.6 | 42.7 | 14.127 | 3.46 | 66.3 | 79.4 |  |  |  |  | CC[C@H](C)[C@H](NC(=O)[C@H](Cc1ccccc1)NC(=O)[C@H](CCC(=O)O)NC(=O)[C@H](CCCCN)NC(=O)[C@H](C)NC(=O)[C@H](C)NC(=O)[C@H](CCC(N)=O)NC(=O)CNC(=O)[C@H](CCC(=O)O)NC(=O)[C@H](CC(C)C)NC(=O)[C@H](Cc1ccc(O)cc1)NC(=O)[C@H](CO)NC(=O)[C@H](CO)NC(=O)[C@@H](NC(=O)[C@H](CC(=O)O)NC(=O)[C@H](CO)NC(=O)[C@@H](NC(=O)[C@H](Cc1ccccc1)N(C)C(=O)[C@@H](NC(=O)CNC(=O)[C@H](CCC(=O)O)NC(=O)[C@H](C)NC(=O)[C@@H](N)Cc1cnc[nH]1)[C@@H](C)O)[C@@H](C)O)C(C)C)C(=O)N[C@@H](C)C(=O)N[C@@H](Cc1c[nH]c2ccccc12)C(=O)N[C@@H](CC(C)C)C(=O)N[C@H](C(=O)N[C@@H](CCCCN)C(=O)NCC(=O)N[C@@H](CCCNC(=N)N)C(=O)O)C(C)C
2 | 100 | 100 | 100 | 14.536 | > 96 | 100 | 100 | 100 | 100 | 100 | 100 | CC[C@H](C)[C@H](NC(=O)[C@H](Cc1ccccc1)NC(=O)[C@H](CCC(=O)O)NC(=O)[C@H](CCCCN)NC(=O)[C@H](C)NC(=O)[C@H](C)NC(=O)[C@H](CCC(N)=O)NC(=O)CNC(=O)[C@H](CCC(=O)O)NC(=O)[C@H](CC(C)C)NC(=O)[C@H](Cc1ccc(O)cc1)NC(=O)[C@H](CO)NC(=O)[C@H](CO)NC(=O)[C@@H](NC(=O)[C@H](CC(=O)O)NC(=O)[C@H](CO)NC(=O)[C@@H](NC(=O)[C@H](Cc1ccccc1)NC(=O)[C@@H](NC(=O)CNC(=O)[C@H](CCC(=O)O)NC(=O)C[C@H](C)NC(=O)[C@@H](N)Cc1cnc[nH]1)[C@@H](C)O)[C@@H](C)O)C(C)C)C(=O)N[C@@H](C)C(=O)N[C@@H](Cc1c[nH]c2ccccc12)C(=O)N[C@@H](CC(C)C)C(=O)N[C@H](C(=O)N[C@@H](CCCCN)C(=O)NCC(=O)N[C@@H](CCCNC(=N)N)C(=O)O)C(C)C
3 | 100 | 100 | 100 | 14.612 | > 96 | 100 | 100 |  |  |  |  | CC[C@H](C)[C@H](NC(=O)[C@H](Cc1ccccc1)NC(=O)[C@H](CCC(=O)O)NC(=O)[C@H](CCCCN)NC(=O)[C@H](C)NC(=O)[C@H](C)NC(=O)[C@H](CCC(N)=O)NC(=O)CNC(=O)[C@H](CCC(=O)O)NC(=O)[C@H](CC(C)C)NC(=O)[C@H](Cc1ccc(O)cc1)NC(=O)[C@H](CO)NC(=O)[C@H](CO)NC(=O)[C@@H](NC(=O)[C@H](CC(=O)O)NC(=O)[C@H](CO)NC(=O)[C@@H](NC(=O)[C@H](Cc1ccccc1)NC(=O)[C@@H](NC(=O)CNC(=O)[C@H](CCC(=O)O)N(C)C(=O)[C@H](C)NC(=O)[C@@H](N)Cc1cnc[nH]1)[C@@H](C)O)[C@@H](C)O)C(C)C)C(=O)N[C@@H](C)C(=O)N[C@@H](Cc1c[nH]c2ccccc12)C(=O)N[C@@H](CC(C)C)C(=O)N[C@H](C(=O)N[C@@H](CCCCN)C(=O)NCC(=O)N[C@@H](CCCNC(=N)N)C(N)=O)C(C)C
4 | 0 | 10.7 | 33.2 | 14.721 | 2.7 | 55.4 | 69.8 |  |  |  |  | CC[C@H](C)[C@H](NC(=O)[C@H](Cc1ccccc1)NC(=O)[C@H](CCC(=O)O)NC(=O)[C@H](CCCCN)NC(=O)[C@H](C)NC(=O)[C@H](C)NC(=O)[C@H](CCC(N)=O)NC(=O)CNC(=O)[C@H](CCC(=O)O)NC(=O)[C@H](CC(C)C)NC(=O)[C@H](Cc1ccc(O)cc1)NC(=O)[C@H](CO)NC(=O)[C@H](CO)NC(=O)[C@@H](NC(=O)[C@H](CC(=O)O)NC(=O)[C@H](CO)NC(=O)[C@@H](NC(=O)[C@H](Cc1ccccc1)NC(=O)[C@H]([C@@H](C)O)N(C)C(=O)CNC(=O)[C@H](CCC(=O)O)NC(=O)[C@H](C)NC(=O)[C@@H](N)Cc1cnc[nH]1)[C@@H](C)O)C(C)C)C(=O)N[C@@H](C)C(=O)N[C@@H](Cc1c[nH]c2ccccc12)C(=O)N[C@@H](CC(C)C)C(=O)N[C@H](C(=O)N[C@@H](CCCCN)C(=O)NCC(=O)N[C@@H](CCCNC(=N)N)C(N)=O)C(C)C
5 | 100 |  |  | 14.005 | > 96 |  |  | 100 | 100 | 100 | 100 | CC[C@H](C)[C@H](NC(=O)[C@H](Cc1ccccc1)NC(=O)[C@H](CCC(=O)O)NC(=O)[C@H](CCCCN)NC(=O)[C@H](C)NC(=O)[C@H](C)NC(=O)[C@H](CCC(N)=O)NC(=O)CNC(=O)[C@H](CCC(=O)O)NC(=O)[C@H](CC(C)C)NC(=O)[C@H](Cc1ccc(O)cc1)NC(=O)[C@H](CO)NC(=O)[C@H](CO)NC(=O)[C@@H](NC(=O)[C@H](CC(=O)O)NC(=O)[C@H](CO)NC(=O)[C@@H](NC(=O)[C@H](Cc1ccccc1)NC(=O)[C@@H](NC(=O)CNC(=O)[C@H](CCC(=O)O)NC(=O)[C@H](C)CNC(=O)[C@@H](N)Cc1cnc[nH]1)[C@@H](C)O)[C@@H](C)O)C(C)C)C(=O)N[C@@H](C)C(=O)N[C@@H](Cc1c[nH]c2ccccc12)C(=O)N[C@@H](CC(C)C)C(=O)N[C@H](C(=O)N[C@@H](CCCCN)C(=O)NCC(=O)N[C@@H](CCCNC(=N)N)C(N)=O)C(C)C
6 | 7.5 | 15.1 | 32.6 | 14.289 | 2.42 | 55.5 | 75.1 |  |  |  |  | CC[C@H](C)[C@H](NC(=O)[C@H](Cc1ccccc1)NC(=O)[C@H](CCC(=O)O)NC(=O)[C@H](CCCCN)NC(=O)[C@H](C)NC(=O)[C@H](C)NC(=O)[C@H](CCC(N)=O)NC(=O)CNC(=O)[C@H](CCC(=O)O)NC(=O)[C@H](CC(C)C)NC(=O)[C@H](Cc1ccc(O)cc1)NC(=O)[C@H](CO)NC(=O)[C@H](CO)NC(=O)[C@@H](NC(=O)[C@H](CC(=O)O)NC(=O)[C@H](CO)NC(=O)[C@@H](NC(=O)[C@H](Cc1ccccc1)NC(=O)[C@@H](NC(=O)CN(C)C(=O)[C@H](CCC(=O)O)NC(=O)[C@H](C)NC(=O)[C@@H](N)Cc1cnc[nH]1)[C@@H](C)O)[C@@H](C)O)C(C)C)C(=O)N[C@@H](C)C(=O)N[C@@H](Cc1c[nH]c2ccccc12)C(=O)N[C@@H](CC(C)C)C(=O)N[C@H](C(=O)N[C@@H](CCCCN)C(=O)NCC(=O)N[C@@H](CCCNC(=N)N)C(N)=O)C(C)C
7 | 0 | 0 | 4.3 | 14.702 | 0.83 | 17.6 | 42.7 |  |  |  |  | CC[C@H](C)[C@H](NC(=O)[C@H](Cc1ccccc1)NC(=O)[C@H](CCC(=O)O)NC(=O)[C@H](CCCCN)NC(=O)[C@H](C)NC(=O)[C@H](C)NC(=O)[C@H](CCC(N)=O)NC(=O)CNC(=O)[C@H](CCC(=O)O)NC(=O)[C@H](CC(C)C)NC(=O)[C@H](Cc1ccc(O)cc1)NC(=O)[C@H](CO)NC(=O)[C@H](CO)NC(=O)[C@@H](NC(=O)[C@H](CC(=O)O)NC(=O)[C@H](CO)NC(=O)[C@@H](NC(=O)[C@H](Cc1ccccc1)NC(=O)[C@@H](NC(=O)CNC(=O)[C@H](CCC(=O)O)NC(=O)[C@H](C)N(C)C(=O)[C@@H](N)Cc1cnc[nH]1)[C@@H](C)O)[C@@H](C)O)C(C)C)C(=O)N[C@@H](C)C(=O)N[C@@H](Cc1c[nH]c2ccccc12)C(=O)N[C@@H](CC(C)C)C(=O)N[C@H](C(=O)N[C@@H](CCCCN)C(=O)NCC(=O)N[C@@H](CCCNC(=N)N)C(N)=O)C(C)C
8 | 82.9 |  |  | 14.669 | 96 |  |  | 72.7 | 41.7 | 54 | 61.3 | CC[C@H](C)[C@H](NC(=O)[C@H](Cc1ccccc1)NC(=O)[C@H](CCC(=O)O)NC(=O)[C@H](CCCCN)NC(=O)[C@H](C)NC(=O)[C@H](C)NC(=O)[C@H](CCC(N)=O)NC(=O)CNC(=O)[C@H](CCC(=O)O)NC(=O)[C@H](CC(C)C)NC(=O)[C@H](Cc1ccc(O)cc1)NC(=O)[C@H](CO)NC(=O)[C@H](CO)NC(=O)[C@@H](NC(=O)[C@H](CC(=O)O)NC(=O)[C@H](CO)NC(=O)[C@@H](NC(=O)[C@H](Cc1ccccc1)NC(=O)[C@@H](NC(=O)CNC(=O)C[C@@H](CCC(=O)O)NC(=O)[C@H](C)NC(=O)[C@@H](N)Cc1cnc[nH]1)[C@@H](C)O)[C@@H](C)O)C(C)C)C(=O)N[C@@H](C)C(=O)N[C@@H](Cc1c[nH]c2ccccc12)C(=O)N[C@@H](CC(C)C)C(=O)N[C@H](C(=O)N[C@@H](CCCCN)C(=O)NCC(=O)N[C@@H](CCCNC(=N)N)C(N)=O)C(C)C

Row | Structure (SMILES) | remaining at 12 h [1] [%] | remaining at 8 h [2] [%] | remaining at 4 h [3] [%] | Retention_time [4] [min] | half-life [5] [h] | remaining at 2 h [6] [%] | remaining at 1 h [7] [%] | remaining at 24 h [8] [%] | remaining at 96 h [9] [%] | remaining at 72 h [10] [%] | remaining at 48 h [11] [%]
9 | CC[C@H](C)[C@H](NC(=O)[C@H](Cc1ccccc1)NC(=O)[C@H](CCC(=O)O)NC(=O)[C@H](CCCCN)NC(=O)[C@H](C)NC(=O)[C@H](C)NC(=O)[C@H](CCC(N)=O)NC(=O)CNC(=O)[C@H](CCC(=O)O)NC(=O)[C@H](CC(C)C)NC(=O)[C@H](Cc1ccc(O)cc1)NC(=O)[C@H](CO)NC(=O)[C@H](CO)NC(=O)[C@@H](NC(=O)[C@H](CC(=O)O)NC(=O)[C@H](CO)NC(=O)[C@@H](NC(=O)[C@H](Cc1ccccc1)NC(=O)[C@@H](NC(=O)CNC(=O)[C@H](CCC(=O)O)NC(=O)[C@H](C)NC(=O)[C@@H](N)Cc1c[nH]cn1)[C@@H](C)O)[C@@H](C)O)C(C)C)C(=O)N[C@@H](C)C(=O)N[C@@H](Cc1c[nH]c2ccccc12)C(=O)N[C@@H](CC(C)C)C(=O)N[C@H](C(=O)N[C@@H](CCCCN)C(=O)NCC(=O)N[C@@H](CCCNC(=N)N)C(N)=O)C(C)C |  |  |  | 14.611 |  |  |  |  |  |  | 
